Results reported in patent US4571403A, “Antianginal medicated compound” (Institut Organicheskoi Khimii Imeni N.D. Zelinskogo …, priority 1984, dated 1986).

Test system: activity of heart and hemodynamics
Assay: phase curve analysis of aortic blood flow: activity of heart and hemodynamics in anesthetized cats
Type: in vivo
Design: Maximum blood flow: unit not given here
Conditions: for Time of systolic ejaculation: background 0.14 ± 0.008; for Time of diastolic relaxation: background 0.22 ± 0.01; for Minute work: background 0.88 ± 0.09; for Systolic (beat) volume: background 1.93 ± 0.12; for Maximum blood flow: background 19.7 ± 2.1; for Maximum linear speed: background 35 ± 1.9; for Average arterial pressure: background 148 ± 7.6; for Pulse frequency: background 181 ± 5; for Minute volume: background 372 ± 26
Text: In experiments on cats and dogs under the general anesthesia conditions the volumetric flow rate of blood flow in the ascending part of the aortic arch has been recorded by the electromagnetic method using an electromagnetic blood flow meter and vessel sensors of appropriate size. On the basis of analysis of the phase curve of the blood flow, the main characteristics of heart activity and hemodynamics have been calculated. […] The averaged data of analysis of phase curves of the blood flow in cat's aorta under general anesthesia conditions (8 tests) are given in the Table hereinbelow.
Effect of the preparation (250 mg/kg intravenously) on the
activity of heart and basic characteristics of hemodynamics

[1] = 5 minutes after 250 mg/kg intravenously
[2] = 10 minutes after 250 mg/kg intravenously
[3] = 20 minutes after 250 mg/kg intravenously
[4] = 40 minutes after 250 mg/kg intravenously

Structure (SMILES): CN1C(=O)N(C)C2C1N(C)C(=O)N2C (stereo not shown) [the preparation, 2,4,6,8-tetramethyl-2,4,6,8-tetraazobicyclo-/3,3,0/-octanedione-3,7]
- heart function (250 mg/kg intravenously): capable of increase the heart function
- Time of systolic ejaculation [1]: 0.12 ± 0.01 s
- Time of diastolic relaxation [1]: 0.22 ± 0.01 s
- Minute work [1]: 1.12 ± 0.15 kgm
- Systolic (beat) volume [1]: 2.22 ± 0.15 mL
- Maximum blood flow [1]: 30 ± 8.2
- Maximum linear speed [1]: 41 ± 2.7 cm/s
- Average arterial pressure [1]: 137 ± 6.9 mm Hg
- Pulse frequency [1]: 190 ± 6 b/min
- Minute volume [1]: 464 ± 38 mL/min
- Time of systolic ejaculation [2]: 0.11 ± 0.09 s
- Time of diastolic relaxation [2]: 0.21 ± 0.01 s
- Minute work [2]: 1.23 ± 0.11 kgm
- Systolic (beat) volume [2]: 2.34 ± 0.18 mL
- Maximum blood flow [2]: 34 ± 2.6
- Maximum linear speed [2]: 49 ± 2.8 cm/s
- Average arterial pressure [2]: 126 ± 8.1 mm Hg
- Pulse frequency [2]: 197 ± 5 b/min
- Minute volume [2]: 488 ± 43 mL/min
- Time of systolic ejaculation [3]: 0.13 ± 0.01 s
- Time of diastolic relaxation [3]: 0.20 ± 0.01 s
- Minute work [3]: 0.97 ± 0.08 kgm
- Systolic (beat) volume [3]: 2.01 ± 0.15 mL
- Maximum blood flow [3]: 28 ± 1.4
- Maximum linear speed [3]: 38 ± 2.3 cm/s
- Average arterial pressure [3]: 139 ± 7.4 mm Hg
- Pulse frequency [3]: 191 ± 7 b/min
- Minute volume [3]: 415 ± 32 mL/min
- Time of systolic ejaculation [4]: 0.13 ± 0.008 s
- Time of diastolic relaxation [4]: 0.23 ± 0.009 s
- Minute work [4]: 0.83 ± 0.10 kgm
- Systolic (beat) volume [4]: 1.97 ± 0.12 mL
- Maximum blood flow [4]: 21.4 ± 2.2
- Maximum linear speed [4]: 33. ± 3.1 cm/sec
- Average arterial pressure [4]: 146 ± 8.8 mm Hg
- Pulse frequency [4]: 183 ± 7 b/min
- Minute volume [4]: 397 ± 33 mL/min
